Consider four compounds from US11571401B2, “Compounds, compositions, kits, and methods for activating immune cells and/or an immune system response” (East Carolina University, priority 2017, dated 2023).

Assay [1] relates to B16F10 melanoma cells. The assay is described as follows: Cell surface calreticulin (CRT) expression by flow cytometry in B16F10 melanoma cells. The format is cell-based, mouse. The protocol: DAMPs are proteins that are expressed on the surface of cancer cells (e.g., calreticulin (CRT)) or are released from cancer cells (e.g., ATP and HMGB1) after exposure to DAMP inducing agents. DAMPs signal immune cell mediated cancer death.
B16F10 melanoma cells were treated with 5 uM 15dPMJ2 (PMJ), 5 uM oxaliplatin (OX), drug vehicle (VEH, DMSO 0.1%) or cells remained untreated (UT) for 2 hours. After 2 hours, cell surface calreticulin (CRT) expression was measured by flow cytometric analysis.
Brefeldin A is a molecule that inhibits the movement of proteins from the ER to the golgi apparatus (inhibits ER-golgi trafficking). Proteins must move from the ER to golgi in order translocate to the cell surface.
B 16f10 cells were treated with vehicle (V), brefeldin A (BFA), 15dPMJ2 (PMJ) or brefeldin+15dPMJ2.
Background: In flow cytometry, cells or beads pass a laser one at a time.

In assay [2] the test system is B16F10 melanoma cells. The assay is described as follows: Extracellular ATP release from B16F10 melanoma cells. The format is cell-based, mouse. As for the experimental part:
B16F10 melanoma cells were treated with 5 uM 15dPMJ2 (PMJ), 5uM oxaliplatin (OX), drug vehicle (VEH, DMSO 0.1%) or cells remained untreated (UT) for 4 hours. After 4 hours of drug treatment, the cell culture media from B16F10 cells was obtained to measured ATP levels.
B16F10 cells were treated with 15dPMJ2 (PMJ), oxaliplatin (OX), or drug vehicle (VEH) in the presence or absence of the ER stress inhibitor, GSK2656157 (“inhibitor” (I)).

The test system of the next assay is A431 cells (NMSC). The assay is described as follows: Cell surface CRT expression by flow cytometry in A431 cells. The format is cell-based, human. As for the experimental part:
(§1) A431 cells (NMSC) and HT-29 (colon cancer) cells were treated with 15dPMJ2, oxaliplatin (OX), drug vehicle (VEH) or cells were untreated (UT) for 2 hours. Cell surface CRT expression was then detected by flow cytometric analysis.
(§2) Tumorigenic, A431, and non-tumorigenic, HaCaT keratinocyte cell lines were treated with 15dPMJ2 or drug vehicle (0.1% DMSO) and the cell surface expression of calreticulin (CRT; “eat me” signal) and CD47 (“don't eat me” signal) was detected by conducting flow cytometric analysis.

Assay [3] has as its system HT-29 (colon cancer) cells. The assay is described as follows: Cell surface CRT expression by flow cytometry in HT-29 cells. The format is cell-based. The note with it: 5 μM (FIG. 6), 2 hours. As for the experimental part: as §1
Assay [4] has as its system non-tumorigenic, HaCaT keratinocyte cell line. The assay is described as follows: Cell surface CRT expression by flow cytometry in HaCaT keratinocytes. The format is cell-based, human. To be noted: HaCaT non-tumor keratinocytes vs drug vehicle (0.1% DMSO); FIG. 7. As for the experimental part:
as §2

In another assay the test system is A431 cells. The assay is described as follows: Cell surface CD47 expression by flow cytometry in A431 cells. To be noted: A431 tumor cells vs drug vehicle (0.1% DMSO); FIG. 8. The assay is classed as cell-based, human. As for the experimental part: as §2
The test system of assay [5] is non-tumorigenic, HaCaT keratinocyte cell line. The assay is described as follows: Cell surface CD47 expression by flow cytometry in HaCaT keratinocytes. The format is cell-based, human. The note with it: HaCaT non-tumor keratinocytes vs drug vehicle (0.1% DMSO); FIG. 8. The protocol:
as §2

The subject of assay [6] is immature dendritic cells isolated from the bone marrow of C57BL/6 mice. The assay is described as follows: Dendritic cell maturation: drug-treated B16F10 cells co-cultured with immature bone marrow dendritic cells. The assay is classed as cell-based, mouse. To be noted: FIG. 9. The protocol:
B16F10 melanoma cells remained untreated (UT) or were treated with lipopolysaccharide (LPS; positive control dendritic cell activator), vehicle (VEH; 0.1% DMSO), 500 uM oxaliplatin (OXA; positive control DAMP inducer), or 5 uM 15dPMJ2 (PMJ). The drug-treated cancer cells were then co-cultured with immature dendritic cells that were isolated from the bone marrow of C57BL/6 mice (mouse strain from which the B16F10 cell line was derived). Cell surface markers for dendritic cell maturation were then detected.

In the next assay the test system is B16F10 melanoma tumors. The assay is described as follows: Tumor-infiltrating mature dendritic cells in B16F10 melanoma tumors in mice. The format is in vivo. To be noted: C57BL/6 mice, peri-tumor route, 5 days, 0.5 and 0.25 mg/kg (FIG. 10), compared to cisplatin-, oxaliplatin-treated and untreated animals. As for the experimental part: To determine if 15dPMJ2 can increase the amount of tumor-attacking immune cells in melanoma tumors, a pilot xenograft study was conducted. B16F10 melanoma cells were injected into the subcutaneous flank region of C57BL/6 mice and tumor growth was allowed until tumors were palpable. Animals were then treated by the peri-tumor route with 15dPMJ2, oxaliplatin (positive control DAMP inducer), cisplatin (negative control DAMP inducer), vehicle (PBS containing 0.1% DMSO) or animals were untreated. After 5 days of drug treatment, animals were euthanized and tumors excised for analysis of infiltrating immune cells (TILs). Tumors were dissociated to create a single cell suspension. The expression of MHC II and CD86 (dendritic cell maturation markers) was analyzed by conducting flow cytometric analysis.

The test system of another assay is tumor cells. To be noted: background statement; see U.S. Pat. No. 9,328,060; cited from earlier work.

Consider `CCCCC/C=C/C=C1/C(=O)C=CC1C/C=C/CCCC(=O)NCCO` (centres unmarked) [Formula 15dPMJ2, 15-deoxy Δ^12,14-prostagladin J2-ethanolamide], for which the “cell surface calreticulin (CRT) expression” value in the assay on B16F10 melanoma cells [1] (5 uM, 2 hours, flow cytometry, FIG. 1) was “significantly greater than oxaliplatin”. The “ATP release (extracellular ATP in cell culture media)” value with B16F10 melanoma cells [2] (5 uM, 4 hours, FIG. 2) was “significantly increased ATP release compared to vehicle and oxaliplatin treated cells”. The “cell surface CRT expression (DAMP expression)” value in the assay with A431 cells (NMSC) (A431 cells, 5 μM (FIG. 5), 2 hours) is on record as “potent inducer of DAMP expression”; in assay [3], “potent inducer of DAMP expression”. Also, the “cell surface expression of calreticulin (CRT; eat me signal)” value is given as “increased” with A431 cells (NMSC) (A431 tumor cells vs drug vehicle (0.1% DMSO), FIG. 7) and “slight increase” in assay [4]. Moreover, the “cell surface expression of CD47 (don't eat me signal)” value in the assay on A431 cells is reported as “decreased”; in assay [5], “increase”. Moreover, the “expression of MHC II and CD86 (dendritic cell maturation markers)” value in [6] (B16F10 cells treated with 5 uM 15dPMJ2, then co-cultured with BMDCs) is “significantly increased the expression of MHC II and CD86”. Further, the “quantity of mature dendritic cells (MHC II, CD86) that infiltrated the tumor” value with B16F10 melanoma tumors was “increased the quantity of mature dendritic cells that infiltrated the tumor”. Further, the “cell death in tumor cells compared to non-tumor cells” value in the assay with tumor cells is given as “preferentially causes cell death in tumor cells compared to non-tumor cells”.
Turning to `O=C1[O][Pt]2([NH][C@@H]3CCCC[C@H]3[NH]2)[O]C1=O` [Oxaliplatin, oxaliplatin, reference compound], the “dendritic cell maturation (MHC II and CD86)” value in [6] (B16F10 cells treated with 500 uM oxaliplatin (100 times the concentration of 15dPMJ2), then co-cultured with BMDCs, compared with 15dPMJ2) is on record as “caused similar levels of dendritic cell maturation”.
As for `C[C@H]1CCC/C=C/[C@@H]2C[C@H](O)C[C@H]2[C@H](O)/C=C/C(=O)O1` [Brefeldin A, reference compound], the “15dPMJ2-mediated cell surface CRT expression in presence of brefeldin A” value with B16F10 melanoma cells [1] (brefeldin + 15dPMJ2, FIG. 4) is given as “inhibited 15dPMJ2-mediated cell surface CRT expression”.
For the compound `Cc1cccc(CC(=O)N2CCc3c2ccc(-c2cn(C)c4ncnc(N)c24)c3F)n1` [GSK2656157, reference compound], the “extracellular ATP levels after 15dPMJ2 in presence of the ER stress inhibitor” value with B16F10 melanoma cells [2] (inhibitor + 15dPMJ2 vs 15dPMJ2 alone, FIG. 3) is on record as “significantly decreased extracellular ATP levels”.
